Data from paper PMC10669220, “In Vitro α-Glucosidase and α-Amylase Inhibition, Cytotoxicity and Free Radical Scavenging Profiling of the 6-Halogeno and Mixed 6,8-Dihalogenated 2-Aryl-4-methyl-1,2-dihydroquinazoline 3-Oxides” (Antioxidants, 2023).
Read-outs that look alike come from different tables or passages of the source.

Assays:
[1] = biological target: T1, α-Glucosidase type 1 from baker's yeast (Saccharomyces cerevisiae, UniProt P53341); test: biochemical; details: mean ± SD, triplicate, tested at 1, 5, 10, 25, 50 µM
T1 construct: purchased Sigma Aldrich (Pty) Ltd. G5003
Protocol: The assay was conducted in triplicate following a method described in our previous study. […] After pre-incubation, 17 µL of 2 mM PNP-G was added. The absorbances were recorded in a 96-well microplate at 400 nm using an Elisa plate reader (Varioskan Flash, ThermoFischer Scientific, Vantaa, Finland). The average values obtained from the readings were used to determine the IC50 and standard deviation values using a GraphPad Prism software (Version 8, GraphPad Software Inc., San Diego, CA, USA). The average values obtained from the absorbance readings were used to determine the IC50 and standard deviation values in GraphPad prism from nonlinear regression dose–response curves.

human α-amylase = biological target: T2, human α-amylase (Homo sapiens, UniProt P04746); test: α-amylase inhibitor screening kit assay; type: biochemical; details: mean ± SD, triplicate; tested at 1, 5, 10, 25, 50 µM
T2 construct: purchased Abcam ab283391
T2 sequence (P04746 16-511): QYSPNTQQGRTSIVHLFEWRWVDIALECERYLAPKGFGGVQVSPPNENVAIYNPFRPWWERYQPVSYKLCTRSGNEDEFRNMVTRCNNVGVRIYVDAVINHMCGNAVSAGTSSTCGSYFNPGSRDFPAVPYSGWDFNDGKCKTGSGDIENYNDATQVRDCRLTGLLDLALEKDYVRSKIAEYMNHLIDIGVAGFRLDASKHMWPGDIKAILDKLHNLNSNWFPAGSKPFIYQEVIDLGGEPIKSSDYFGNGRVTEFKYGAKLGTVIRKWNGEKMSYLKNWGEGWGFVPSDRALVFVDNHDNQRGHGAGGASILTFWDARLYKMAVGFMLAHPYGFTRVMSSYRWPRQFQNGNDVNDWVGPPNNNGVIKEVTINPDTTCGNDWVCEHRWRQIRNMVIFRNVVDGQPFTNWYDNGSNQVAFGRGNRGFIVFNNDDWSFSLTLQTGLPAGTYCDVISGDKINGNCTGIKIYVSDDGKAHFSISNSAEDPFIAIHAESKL
Protocol: The α-amylase assay was performed in triplicate, using a 96-well plate following the procedure recommended by the manufacturer as outlined in the α-amylase inhibitor Screening Kit (Catalogue No. ab283391; Abcam). […] The average values obtained from the absorbance readings were used to determine the IC50 and standard deviation values in GraphPad prism from nonlinear regression dose–response curves.

[2] = DPPH radical scavenging assay; details: mean ± SD; 45 min in the dark; 512 nm
Protocol: The DPPH radical scavenging assay was conducted following the procedure described in our previous study. The test compounds and ascorbic acid at various concentrations (ranging from 0 µM to 50 µM) in DMSO were mixed with a solution of DPPH (0.20 mM) in methanol and incubated in the dark for 45 min. Five absorbance readings were recorded at 512 nm using an Elisa plate reader (Varioskan Flash, ThermoFisher Scientific, Vantaa, Finland). The experiment was carried out in triplicate, and averaged values from the absorbance readings were used to determine the IC50 and standard deviation values in GraphPad prism from nonlinear regression dose–response curves.

[3] = NO free radical scavenging assay (sodium nitroprusside/Griess); details: mean ± SD; sodium nitroprusside, Griess reagent, 550 nm
Protocol: The assay was conducted following the method described in our previous study. A mixture of 10 mM sodium nitroprusside (20 µL), phosphate buffer (5 µL) and the test compound (5 µL) were incubated at 25 °C in a 96-well plate for 2.5 h. After incubation, 20 µL of Griess reagent (1.00 g of sulfanilic acid + 0.10 g naphthylethylene diamine dihydrochloride) was added to the previous mixture and allowed to stand for 30 min. […] Each experiment was performed in triplicate, and the average was taken. The average obtained from the absorbance readings was used to calculate the IC50 values in GraphPad prism from nonlinear regression dose–response curves.

[4] = test system: lung cancer (A549) cell line; test: MTT cytotoxicity assay, A549; details: for Cell viability percentage, A549: Table S3
Protocol: (§1) Cells were cultured in sterile Dulbecco’s Minimal Essential Medium (DMEM, Gibco) supplemented with 10% fetal bovine serum (FBS) and 1% penicillin-streptomycin solution. […] Cell counting was carried out using a handheld automated cell counter (Scapter 3.0™, Merck, Burlington, MA, USA) and seeded (1 × 10^4 cells/well) into a 96-well plate. After 24 h, the cells were treated with different concentrations (1, 5, 10, 25 and 50 µM) of the test compounds and reference standards prepared in DMEM. The MTT solution (20 μL) prepared in PBS (5 mg/mL) was added to all the wells, and the plates were incubated for 4 h, followed by 1 h incubation with 100 µL of dimethyl sulfoxide (DMSO) to dissolve the formazan crystals. Untreated cells and 5% DMSO were included in the experiment as negative controls. All experiments were performed in triplicate. The plates were read at 570 nm at a reference wavelength of 630 nm using an ELISA plate reader (Varioskan Flash, ThermoFisher Scientific, Vantaa, Finland). The percentage of cell viability was calculated using the following formula, Cell viability %=At/Ab×100 where At represents the absorbance value of test compound and Ab the absorbance value of the blank. […] The data were expressed as means ± SD.

[5] = test system: breast cancer (MCF-7) cell line; test: MTT cytotoxicity assay, MCF-7; details: for Cell viability percentage, MCF-7: Table S2
Protocol: as §1

[6] = MTT cytotoxicity assay, HEK293-T; details: human, HEK293-T cells
Protocol: as §1

[7] = test system: human embryonic kidney (HEK293-T) cell line; test: MTT cytotoxicity assay, HEK293-T; details: for IC50: read-out: IC50 Hek293-T; for Cell viability percentage, HEK293-T: Table S4
Protocol: as §1

[8] = Homo sapiens, A549, read-out: IC50 A549
[9] = Homo sapiens, MCF7, read-out: IC50 MCF-7

T1 sequence (P53341 whole entry): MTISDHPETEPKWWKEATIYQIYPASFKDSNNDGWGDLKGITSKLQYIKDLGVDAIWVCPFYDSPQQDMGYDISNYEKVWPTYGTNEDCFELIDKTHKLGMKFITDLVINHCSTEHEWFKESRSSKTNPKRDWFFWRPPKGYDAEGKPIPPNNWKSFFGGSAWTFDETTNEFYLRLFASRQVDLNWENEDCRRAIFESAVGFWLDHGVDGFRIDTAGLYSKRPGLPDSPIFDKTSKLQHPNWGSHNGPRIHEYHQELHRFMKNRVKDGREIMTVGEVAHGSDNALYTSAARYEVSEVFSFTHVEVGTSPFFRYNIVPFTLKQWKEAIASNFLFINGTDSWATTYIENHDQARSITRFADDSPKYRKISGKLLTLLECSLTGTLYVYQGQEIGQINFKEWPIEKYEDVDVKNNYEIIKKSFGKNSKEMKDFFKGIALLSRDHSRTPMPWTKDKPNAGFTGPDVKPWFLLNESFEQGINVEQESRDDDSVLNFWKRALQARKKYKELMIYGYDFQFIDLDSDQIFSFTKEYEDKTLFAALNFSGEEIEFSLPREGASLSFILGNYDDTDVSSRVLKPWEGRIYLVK

Compound | IC50 (human α-amylase) [µM] | IC50 [2] [µM] | IC50 [3] [µM] | Cell viability percentage, A549 ([4]; Conc. 1 (µM per method)) | Cell viability percentage, A549 ([4]; Conc. 5 (µM per method)) | Cell viability percentage, A549 ([4]; Conc. 10 (µM per method)) | Cell viability percentage, A549 ([4]; Conc. 25 (µM per method)) | Cell viability percentage, A549 ([4]; Conc. 50 (µM per method)) | IC50 [4, 8] [µM] | Cell viability percentage, MCF-7 ([5]; Conc. 1 (µM per method)) | Cell viability percentage, MCF-7 ([5]; Conc. 5 (µM per method)) | Cell viability percentage, MCF-7 ([5]; Conc. 10 (µM per method)) | Cell viability percentage, MCF-7 ([5]; Conc. 25 (µM per method)) | Cell viability percentage, MCF-7 ([5]; Conc. 50 (µM per method)) | IC50 [5, 9] [µM] | viability at 1 µM [6] [%] | viability at 5 µM [6] [%] | viability at 10 µM [6] [%] | viability at 25 µM [6] [%] | IC50 ([7]; Homo sapiens, HEK-293T) [µM] | also measured
CC1=[N+]([O-])C(c2ccc(F)cc2)Nc2c(I)cc(Br)cc21 (stereo not shown) [Compound 3j] | 17.48 ± 0.03 | 61.01 ± 0.053 | 5.17 ± 0.007 | 79,064% | 67,1729% | 57,7455% | 42,6257% | 29,7109% | 13.7 ± 0.12 | 60,354% | 53,8289% | 40,413% | 30,7493% | 22,7375% | 15.06 ± 0.01 | 67.6 | 72.8 | 54.5 | 33.9 | 32.83 ± 0.06 | IC50 ([1]; IC50 α-Glucosidase): 19.69 ± 0.01 µM; melting point: 170 to 173 °C; viability at 50 µM [6]: 19.4%
CC1=[N+]([O-])C(c2ccc(F)cc2)Nc2ccc(Br)cc21 (stereo not shown) [Compound 3b] | 36.35 ± 0.01 | 1.07 ± 0.048 | 15.1 ± 0.029 | 69,0066% | 60,8505% | 56,1818% | 42,7495% | 28,8446% | 19.31 ± 0.08 | 39,7538% | 38,34% | 35,1963% | 33,8157% | 30,3061% | 12.8 ± 0.07 | 41.6 | 41.3 | 40.3 | 38.5 | 41.72 ± 0.04 | IC50 ([1]; IC50 α-Glucosidase): 7.47 ± 0.05 µM; melting point: 183 to 185 °C; viability at 50 µM [6]: 35.8%
CC1=[N+]([O-])C(c2ccccc2)Nc2c(Br)cc(I)cc21 (stereo not shown) [Compound 3m] | 16.73 ± 0.01 | 8.88 ± 0.011 | 55.39 ± 0.002 | 78,1978% | 68,6691% | 61,413% | 42,2995% | 30,0709% | 16.34 ± 0.06 | 25,998% | 24,1517% | 20,9415% | 20,6088% | 17,6314% | 15.34 ± 0.07 | 81.2 | 75 | 51.1 | 42 | 27.97 ± 0.08 | IC50 ([1]; IC50 α-Glucosidase): 9.14 ± 0.03 µM; melting point: 180 to 181 °C; viability at 50 µM [6]: 19.1%
CC1=[N+]([O-])C(c2ccc(Cl)cc2)Nc2ccc(I)cc21 (racemic) [Compound 3g] | 53.42 ± 0.01 | 26.88 ± 0.043 | 4.25 ± 0.005 | 72,7416% | 56,2268% | 50,6131% | 43,0757% | 33,0296% |  | 42,0991% | 37,841% | 36,5769% | 35,8117% | 33,9155% |  |  |  |  |  |  | IC50 ([1]; read-out: IC50 α-Glucosidase): 15.08 ± 0.08 µM; IC50 ([4]; read-out: IC50 A549, MTT, mean ± SD, triplicate, 1-50 µM): 18.63 ± 0.11 µM; IC50 ([5]; read-out: IC50 MCF-7, MTT, mean ± SD, triplicate, 1-50 µM): 10.38 ± 0.08 µM; Cell viability percentage, HEK293-T ([7]; Conc. 1 (µM per method)): 63,41%; Cell viability percentage, HEK293-T ([7]; Conc. 5 (µM per method)): 46,5251%; Cell viability percentage, HEK293-T ([7]; Conc. 10 (µM per method)): 41,062%; Cell viability percentage, HEK293-T ([7]; Conc. 25 (µM per method)): 31,41%; Cell viability percentage, HEK293-T ([7]; Conc. 50 (µM per method)): 17,0502%; IC50 ([7]; MTT, normal cell line, mean ± SD, triplicate, 1-50 µM): 21.7 ± 0.13 µM
COc1ccc(C2Nc3ccc(I)cc3C(C)=[N+]2[O-])cc1 (stereo not shown) [Compound 3h] | 55.72 ± 0.02 | 0.21 ± 0.057 | 10.05 ± 0.003 | 87,7714% | 86,9389% | 64,8667% | 56,0806% | 38,362% | 18.71 ± 0.16 | 45,0932% | 44,5775% | 43,1304% | 41,2009% | 37,5083% | 22.62 ± 0.12 | 33.3 | 32.6 | 30.8 | 29.7 | 24.26 ± 0.04 | IC50 ([1]; IC50 α-Glucosidase): 27.18 ± 0.02 µM; melting point: 176 to 179 °C; viability at 50 µM [6]: 28.1%
CC1=[N+]([O-])C(c2ccc(Cl)cc2)Nc2c(I)cc(Br)cc21 (stereo not shown) [Compound 3k] | 4.46 ± 0.02 | 4.08 ± 0.038 | 15 ± 0.005 | 78,5578% | 73,6416% | 60,0068% | 42,682% | 32,6808% | 15.37 ± 0.13 | 42,1823% | 41,6001% | 39,6041% | 38,7891% | 38,1737% | 16.65 ± 0.05 | 61.3 | 55.4 | 42.5 | 31.6 | 21.04 ± 0.05 | IC50 ([1]; read-out: IC50 α-Glucosidase): 13.47 ± 0.04 µM; viability at 50 µM [6]: 24%
COc1ccc(C2Nc3ccc(Br)cc3C(C)=[N+]2[O-])cc1 (stereo not shown) [Compound 3d] | 54.08 ± 0.03 | 9.55 ± 0.006 | 24.42 ± 0.004 |  |  |  |  |  | 13.45 ± 0.03 | 47,0559% | 46,8729% | 44,0286% | 43,2136% | 38,6394% | 13.68 ± 0.09 | 75.1 | 60.1 | 54.1 | 30.6 | 37.53 ± 0.18 | IC50 ([1]; IC50 α-Glucosidase): 68.2 ± 0.01 µM; melting point: 194 to 196 °C; viability at 50 µM [6]: 17.6%
COc1cccc2c1C(=O)c1c(O)c3c(c(O)c1C2=O)C[C@@](O)(C(=O)CO)C[C@@H]3O[C@H]1C[C@H](N)[C@H](O)[C@H](C)O1 [Doxorubicin, doxorubicin, reference compound] |  |  |  |  |  |  |  |  | 0.36 ± 0.07 |  |  |  |  |  | 0.25 ± 0.05 |  |  |  |  | 0.87 ± 0.04 | 
